Experiment [1] has as its target human somatostatin receptor subtype 5 (Homo sapiens, UniProt P35346). In words: cAMP assay for SST5R (inhibition of cAMP via human SST5 receptor). The following applies: for Fold selectivity for SST5 vs SST2: SST5 over SST2, class symbols. In general terms: cAMP levels reflect the balance of adenylyl cyclase and phosphodiesterase activity.
The target in experiment [2] is T1, human somatostatin receptor subtype 2 (Homo sapiens, UniProt P30874).
T1 construct: expressed in transfected cells
T1 sequence (P30874 whole entry): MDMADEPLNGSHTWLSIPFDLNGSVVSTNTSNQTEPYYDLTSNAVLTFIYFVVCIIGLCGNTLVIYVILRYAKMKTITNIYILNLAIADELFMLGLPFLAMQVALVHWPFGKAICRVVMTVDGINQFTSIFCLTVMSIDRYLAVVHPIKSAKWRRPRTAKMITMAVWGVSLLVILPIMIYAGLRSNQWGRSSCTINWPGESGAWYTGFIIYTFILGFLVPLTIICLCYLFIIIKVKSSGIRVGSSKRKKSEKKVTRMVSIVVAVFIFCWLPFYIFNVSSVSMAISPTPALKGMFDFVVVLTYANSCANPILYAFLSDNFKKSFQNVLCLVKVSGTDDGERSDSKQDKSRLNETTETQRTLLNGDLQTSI
In words: cAMP assay for SST2R (inhibition of cAMP via human SST2 receptor). The class given is cell-based. The following applies: Table B, read-out: SST2 potency. From the text:
cAMP Assay Protocol for SST2R:

[3] abbreviates: read-out: SST5 potency, inhibition of cAMP via human SST5 receptor, Table B.

The values that follow come from patent US11608335B2, “Somatostatin modulators and uses thereof” (CRINETICS PHARMACEUTICALS, INC., priority 2018, dated 2023).

Where two headings read alike, the source gives them in different places. Bounds are passed on as bounds.

Sequence of human somatostatin receptor subtype 5 (P35346 whole entry): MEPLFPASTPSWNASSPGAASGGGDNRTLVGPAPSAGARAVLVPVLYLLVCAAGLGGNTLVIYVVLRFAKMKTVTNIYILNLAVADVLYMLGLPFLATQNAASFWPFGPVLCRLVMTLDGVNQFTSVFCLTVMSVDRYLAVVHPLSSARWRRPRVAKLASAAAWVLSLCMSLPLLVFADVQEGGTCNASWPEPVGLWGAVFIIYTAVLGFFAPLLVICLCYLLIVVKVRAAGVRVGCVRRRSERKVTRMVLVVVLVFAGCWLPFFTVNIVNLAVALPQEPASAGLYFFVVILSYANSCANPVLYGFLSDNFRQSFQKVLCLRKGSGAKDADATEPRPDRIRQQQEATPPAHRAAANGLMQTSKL

Consider `N#Cc1cccc(-c2cncc(-c3nc4c(F)cccc4[nH]3)c2N2CCC(N)(CO)C2)c1` (stereo not drawn) [Compound 2-54, 3-{4-[3-amino-3-(hydroxymethyl)pyrrolidin-1-yl]-5-(4-fluoro-1H-1,3-benzodiazol-2-yl)pyridin-3-yl}benzonitrile], for which the EC50 was under 10 nM in experiment [1], under 10 nM in experiment [1] (setting [3]) and 100 to 1000 nM in experiment [2]. Besides, the “Fold selectivity for SST5 vs SST2” value in experiment [1] is “+++ (+++=≥500)”.
In the case of `N#Cc1cccc(-c2cncc(-c3nc4cccc(Br)c4[nH]3)c2N2CC[C@H](N)C2)c1` [Compound 2-57, 3-{4-[(3S)-3-aminopyrrolidin-1-yl]-5-(4-bromo-1H-1,3-benzodiazol-2-yl)pyridin-3-yl}benzonitrile], the EC50 in experiment [1] was under 10 nM; in experiment [1] (setting [3]), under 10 nM; in experiment [2] it was 100 to 1000 nM. In experiment [1], the “Fold selectivity for SST5 vs SST2” value was “+++ (+++=≥500)”.
Turning to `N#Cc1cc(-c2cncc(-c3nc4cccc(C(F)(F)F)c4[nH]3)c2N2CC[C@H](N)C2)ccc1F` [Compound 2-60, 5-{4-[(3S)-3-aminopyrrolidin-1-yl]-5-[4-(trifluoromethyl)-1H-1,3-benzodiazol-2-yl]pyridin-3-yl}-2-fluorobenzonitrile], the figures for the EC50 in experiment [1], in experiment [1] (setting [3]) and in experiment [2] were under 10 nM, under 10 nM and 100 to 1000 nM, respectively. Also, the “Fold selectivity for SST5 vs SST2” value in experiment [1] is “++ (++=100 to 499)”.
In the case of `Cc1cccc2nc(-c3cncc(-c4cc(F)cc(C(N)=O)c4)c3N3CC[C@H](N)C3)[nH]c12` [Compound 2-65, 3-{4-[(3S)-3-aminopyrrolidin-1-yl]-5-(4-methyl-1H-1,3-benzodiazol-2-yl)pyridin-3-yl}-5-fluorobenzamide], the EC50 in experiment [1] was under 10 nM; in experiment [1] (setting [3]), under 10 nM; in experiment [2], 100 to 1000 nM. Moreover, the “Fold selectivity for SST5 vs SST2” value in experiment [1] is listed as “++ (++=100 to 499)”.
Consider `Cn1c(-c2cncc(-c3cccc(C#N)c3)c2N2CC[C@H](N)C2)nc2cccc(Cl)c21` [Compound 2-76, 3-{4-[(3S)-3-aminopyrrolidin-1-yl]-5-(7-chloro-1-methyl-1H-1,3-benzodiazol-2-yl)pyridin-3-yl}benzonitrile], for which the values for the EC50 in experiment [1], in experiment [1] (setting [3]) and in experiment [2] were under 10 nM, under 10 nM and 100 to 1000 nM, respectively. In addition, in experiment [1], the “Fold selectivity for SST5 vs SST2” value is “+++ (+++=≥500)”.
In the case of `Cc1cc(F)cc2nc(-c3cncc(-c4cc(F)cc(C#N)c4)c3N3CC[C@H](N)C3)[nH]c12` [Compound 2-79, 3-{4-[(3S)-3-aminopyrrolidin-1-yl]-5-(6-fluoro-4-methyl-1H-1,3-benzodiazol-2-yl)pyridin-3-yl}-5-fluorobenzonitrile], the figures for the EC50 in experiment [1], in experiment [1] (setting [3]) and in experiment [2] were under 10 nM, under 10 nM and 100 to 1000 nM, respectively. Besides, the “Fold selectivity for SST5 vs SST2” value in experiment [1] is “++ (++=100 to 499)”.
In the case of `Cc1cccc2nc(-c3cncc(-c4cccc(C#N)c4)c3N3CC[C@H](N)C3)[nH]c12` [Compound 2-80, 3-{4-[(3S)-3-aminopyrrolidin-1-yl]-5-(4-methyl-1H-1,3-benzodiazol-2-yl)pyridin-3-yl}benzonitrile], the EC50 in experiment [1] is under 10 nM; in experiment [1] (setting [3]) it was under 10 nM; in experiment [2], 100 to 1000 nM. For the same compound, the “Fold selectivity for SST5 vs SST2” value in experiment [1] is “+++ (+++=≥500)”.
For `Cc1c(F)ccc2nc(-c3cncc(-c4cc(F)cc(C#N)c4)c3N3CC[C@H](N)C3)[nH]c12` [Compound 2-86, 3-{4-[(3S)-3-aminopyrrolidin-1-yl]-5-(5-fluoro-4-methyl-1H-1,3-benzodiazol-2-yl)pyridin-3-yl}-5-fluorobenzonitrile], the EC50 is under 10 nM in experiment [1], under 10 nM in experiment [1] (setting [3]) and 100 to 1000 nM in experiment [2]. Also, the “Fold selectivity for SST5 vs SST2” value in experiment [1] is reported as “++ (++=100 to 499)”.
Consider `Cc1ccc(F)c2[nH]c(-c3cncc(-c4ccnc(C#N)c4)c3N3CC[C@H](N)C3)nc12` [Compound 2-106, 4-[(3S)-3-aminopyrrolidin-1-yl]-5-(7-fluoro-4-methyl-1H-1,3-benzodiazol-2-yl)-[3,4′-bipyridine]-2′-carbonitrile], for which the EC50 in experiment [1] is under 10 nM; in experiment [1] (setting [3]) it was under 10 nM; in experiment [2] it was 100 to 1000 nM. In addition, in experiment [1], the “Fold selectivity for SST5 vs SST2” value was “+++ (+++=≥500)”.
For the compound `Cc1ccnc2nc(-c3cncc(-c4cc(F)cc(C#N)c4)c3N3CCC(C)(N)C3)[nH]c12` (stereo not drawn) [Compound 2-108, 3-[4-(3-amino-3-methylpyrrolidin-1-yl)-5-{7-methyl-1H-imidazo[4,5-b]pyridin-2-yl}pyridin-3-yl]-5-fluorobenzonitrile], the results for the EC50 in experiment [1], in experiment [1] (setting [3]) and in experiment [2] were under 10 nM, under 10 nM and 100 to 1000 nM, respectively. Further, the “Fold selectivity for SST5 vs SST2” value in experiment [1] is given as “++ (++=100 to 499)”.
`N#Cc1cc(F)cc(-c2cncc(-c3nc4ccccc4[nH]3)c2N2CC[C@H](N)C2)c1` [Compound 2-109, 3-{4-[(3S)-3-aminopyrrolidin-1-yl]-5-(1H-1,3-benzodiazol-2-yl)pyridin-3-yl}-5-fluorobenzonitrile]: the values for the EC50 in experiment [1], in experiment [1] (setting [3]) and in experiment [2] were under 10 nM, under 10 nM and 100 to 1000 nM, respectively. Besides, the “Fold selectivity for SST5 vs SST2” value in experiment [1] is recorded as “++ (++=100 to 499)”.
`Cn1c(-c2cncc(-c3cc(F)cc(C#N)c3)c2N2CC[C@H](N)C2)nc2c(Cl)cccc21` [Compound 2-116, 3-{4-[(3S)-3-aminopyrrolidin-1-yl]-5-(4-chloro-1-methyl-1H-1,3-benzodiazol-2-yl)pyridin-3-yl}-5-fluorobenzonitrile]: the EC50 in experiment [1] is under 10 nM; in experiment [1] (setting [3]), under 10 nM; in experiment [2], over 1000 nM. The “Fold selectivity for SST5 vs SST2” value in experiment [1] is “+++ (+++=≥500)”.
Take `CC1(N)CCN(c2c(-c3ccnc(C#N)c3)cncc2-c2nc3cccc(F)c3[nH]2)C1` (stereo not drawn) [Compound 2-121, 4-(3-amino-3-methylpyrrolidin-1-yl)-5-(4-fluoro-1H-1,3-benzodiazol-2-yl)-[3,4′-bipyridine]-2′-carbonitrile]: the EC50 in experiment [1] was under 10 nM; in experiment [1] (setting [3]), under 10 nM; in experiment [2] it was 100 to 1000 nM. Further, the “Fold selectivity for SST5 vs SST2” value in experiment [1] is “+++ (+++=≥500)”.
`Cc1ccnc2nc(-c3cncc(-c4cccc(C#N)c4)c3N3CCC(C)(N)C3)[nH]c12` (stereo not drawn) [Compound 2-122, 3-[4-(3-amino-3-methylpyrrolidin-1-yl)-5-{7-methyl-1H-imidazo[4,5-b]pyridin-2-yl}pyridin-3-yl]benzonitrile]: the figures for the EC50 in experiment [1], in experiment [1] (setting [3]) and in experiment [2] were under 10 nM, under 10 nM and 100 to 1000 nM, respectively. Moreover, the “Fold selectivity for SST5 vs SST2” value in experiment [1] was “++ (++=100 to 499)”.
`Cc1cccc2nc(-c3cncc(-c4ccnc(C#N)c4)c3N3CCC(C)(N)C3)[nH]c12` (stereo not drawn) [Compound 2-123, 4-(3-amino-3-methylpyrrolidin-1-yl)-5-(4-methyl-1H-1,3-benzodiazol-2-yl)-[3,4′-bipyridine]-2′-carbonitrile]: the EC50 is under 10 nM in experiment [1], under 10 nM in experiment [1] (setting [3]) and 10 to 100 nM in experiment [2]. In addition, the “Fold selectivity for SST5 vs SST2” value in experiment [1] is on record as “+++ (+++=≥500)”.
Regarding `Cc1cccc2nc(-c3cncc(-c4ccc(F)c(C(N)=O)c4)c3N3CCC(C)(N)C3)[nH]c12` (stereo not drawn) [Compound 2-124, 5-[4-(3-amino-3-methylpyrrolidin-1-yl)-5-(4-methyl-1H-1,3-benzodiazol-2-yl)pyridin-3-yl]-2-fluorobenzamide], the EC50 is under 10 nM in experiment [1], under 10 nM in experiment [1] (setting [3]) and 100 to 1000 nM in experiment [2]. Further, the “Fold selectivity for SST5 vs SST2” value in experiment [1] is “+++ (+++=≥500)”.
Turning to `Cc1ccc(F)c2nc(-c3cncc(-c4ccc(F)c(C(N)=O)c4)c3N3CCC(C)(N)C3)[nH]c12` (stereo not drawn) [Compound 2-125, 5-[4-(3-amino-3-methylpyrrolidin-1-yl)-5-(7-fluoro-4-methyl-1H-1,3-benzodiazol-2-yl)pyridin-3-yl]-2-fluorobenzamide], the EC50 was under 10 nM in experiment [1], under 10 nM in experiment [1] (setting [3]) and 100 to 1000 nM in experiment [2]. In addition, the “Fold selectivity for SST5 vs SST2” value in experiment [1] is recorded as “+++ (+++=≥500)”.
For `Cc1cccc2[nH]c(-c3cncc(-c4cc(F)c(F)c(C(N)=O)c4)c3N3CCC(C)(N)C3)nc12` (stereo not drawn) [Compound 2-127, 5-[4-(3-Amino-3-methylpyrrolidin-1-yl)-5-(4-methyl-1H-1,3-benzodiazol-2-yl)pyridin-3-yl]-2,3-difluorobenzamide], the values for the EC50 in experiment [1], in experiment [1] (setting [3]) and in experiment [2] were under 10 nM, under 10 nM and 100 to 1000 nM, respectively. For the same compound, the “Fold selectivity for SST5 vs SST2” value in experiment [1] is listed as “++ (++=100 to 499)”.
Consider `Cc1cccc2nc(-c3cncc(-c4ccnc(C#N)c4)c3N3CC[C@H](N)C3)[nH]c12` [Compound 2-128, 4-[(3S)-3-aminopyrrolidin-1-yl]-5-(4-methyl-1H-1,3-benzodiazol-2-yl)-[3,4′-bipyridine]-2′-carbonitrile], for which the EC50 was under 10 nM in experiment [1], under 10 nM in experiment [1] (setting [3]) and 100 to 1000 nM in experiment [2]. The “Fold selectivity for SST5 vs SST2” value in experiment [1] is recorded as “+++ (+++=≥500)”.
Take `Cn1c(-c2cncc(-c3ccc(F)c(C#N)c3)c2N2CC[C@H](N)C2)nc2c(Cl)cccc21` [Compound 2-131, 5-{4-[(3S)-3-aminopyrrolidin-1-yl]-5-(4-chloro-1-methyl-1H-1,3-benzodiazol-2-yl)pyridin-3-yl}-2-fluorobenzonitrile]: the EC50 is 10 to 100 nM in experiment [1], 10 to 100 nM in experiment [1] (setting [3]) and over 1000 nM in experiment [2]. Moreover, in experiment [1], the “Fold selectivity for SST5 vs SST2” value is listed as “+++ (+++=≥500)”.
On to `Cc1cccc2c1nc(-c1cncc(-c3ccc(F)c(C#N)c3)c1N1CC[C@H](N)C1)n2C` [Compound 2-132, 5-{4-[(3S)-3-aminopyrrolidin-1-yl]-5-(1,4-dimethyl-1H-1,3-benzodiazol-2-yl)pyridin-3-yl}-2-fluorobenzonitrile], for which the EC50 was under 10 nM in experiment [1], under 10 nM in experiment [1] (setting [3]) and over 1000 nM in experiment [2]. In addition, the “Fold selectivity for SST5 vs SST2” value in experiment [1] was “+++ (+++=≥500)”.
